Assay results published in ChEMBL document CHEMBL2073896, “Bromocriptine transcriptionally activates the multidrug resistance gene (pgp2/mdr1b) by a novel pathway” (J Biol Chem, 1997).

Legend:
Assay type in all cases: functional, cell-based
[1] = target: Multidrug resistance protein 1a (Rattus norvegicus) (UniProt Q6PSM0); assay: TP_TRANSPORTER: Northern blot from H35 hepatoma cells
[2] = target: Multidrug resistance protein 1a (Rattus norvegicus) (UniProt Q6PSM0); assay: TP_TRANSPORTER: Western blot, H35 hepatoma cells
[3] = target: ATP-dependent translocase ABCB1 (Rattus norvegicus, UniProt P43245); assay: TP_TRANSPORTER: Luciferase assay in H35 hepatoma cells
Chain of ATP-dependent translocase ABCB1 (P43245 whole entry): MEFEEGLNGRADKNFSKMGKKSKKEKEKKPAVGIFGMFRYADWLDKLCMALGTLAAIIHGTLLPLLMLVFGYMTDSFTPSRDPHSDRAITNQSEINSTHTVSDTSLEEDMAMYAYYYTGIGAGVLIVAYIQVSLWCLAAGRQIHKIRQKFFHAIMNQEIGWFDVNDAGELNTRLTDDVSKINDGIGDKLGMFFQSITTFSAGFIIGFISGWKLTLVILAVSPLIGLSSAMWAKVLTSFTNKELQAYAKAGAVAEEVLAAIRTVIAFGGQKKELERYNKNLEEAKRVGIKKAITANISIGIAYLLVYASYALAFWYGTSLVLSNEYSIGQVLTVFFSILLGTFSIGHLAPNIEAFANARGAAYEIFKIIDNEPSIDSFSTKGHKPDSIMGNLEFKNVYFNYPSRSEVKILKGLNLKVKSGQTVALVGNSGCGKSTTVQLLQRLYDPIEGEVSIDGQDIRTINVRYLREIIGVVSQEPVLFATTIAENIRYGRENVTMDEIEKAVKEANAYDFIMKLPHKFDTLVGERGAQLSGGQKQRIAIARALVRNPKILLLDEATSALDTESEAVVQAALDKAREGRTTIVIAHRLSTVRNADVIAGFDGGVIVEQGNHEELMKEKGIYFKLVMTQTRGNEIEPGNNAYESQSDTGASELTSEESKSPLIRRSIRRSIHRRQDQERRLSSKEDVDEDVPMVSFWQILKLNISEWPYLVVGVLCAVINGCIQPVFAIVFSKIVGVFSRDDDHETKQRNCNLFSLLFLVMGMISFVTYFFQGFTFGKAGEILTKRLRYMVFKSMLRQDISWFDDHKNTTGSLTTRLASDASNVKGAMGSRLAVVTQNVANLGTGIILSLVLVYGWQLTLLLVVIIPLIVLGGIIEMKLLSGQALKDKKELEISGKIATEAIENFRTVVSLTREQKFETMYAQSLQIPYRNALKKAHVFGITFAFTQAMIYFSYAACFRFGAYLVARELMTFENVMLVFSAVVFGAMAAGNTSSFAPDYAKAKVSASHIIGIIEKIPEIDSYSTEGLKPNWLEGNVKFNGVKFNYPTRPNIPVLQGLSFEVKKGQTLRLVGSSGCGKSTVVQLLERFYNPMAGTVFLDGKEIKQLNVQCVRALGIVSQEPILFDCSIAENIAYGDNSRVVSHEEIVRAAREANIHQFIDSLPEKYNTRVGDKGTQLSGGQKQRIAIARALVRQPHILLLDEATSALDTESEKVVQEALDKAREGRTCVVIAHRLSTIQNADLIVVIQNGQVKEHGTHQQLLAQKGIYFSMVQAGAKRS

Chain of Multidrug resistance protein 1a (Rattus norvegicus) (Q6PSM0 as listed by the source): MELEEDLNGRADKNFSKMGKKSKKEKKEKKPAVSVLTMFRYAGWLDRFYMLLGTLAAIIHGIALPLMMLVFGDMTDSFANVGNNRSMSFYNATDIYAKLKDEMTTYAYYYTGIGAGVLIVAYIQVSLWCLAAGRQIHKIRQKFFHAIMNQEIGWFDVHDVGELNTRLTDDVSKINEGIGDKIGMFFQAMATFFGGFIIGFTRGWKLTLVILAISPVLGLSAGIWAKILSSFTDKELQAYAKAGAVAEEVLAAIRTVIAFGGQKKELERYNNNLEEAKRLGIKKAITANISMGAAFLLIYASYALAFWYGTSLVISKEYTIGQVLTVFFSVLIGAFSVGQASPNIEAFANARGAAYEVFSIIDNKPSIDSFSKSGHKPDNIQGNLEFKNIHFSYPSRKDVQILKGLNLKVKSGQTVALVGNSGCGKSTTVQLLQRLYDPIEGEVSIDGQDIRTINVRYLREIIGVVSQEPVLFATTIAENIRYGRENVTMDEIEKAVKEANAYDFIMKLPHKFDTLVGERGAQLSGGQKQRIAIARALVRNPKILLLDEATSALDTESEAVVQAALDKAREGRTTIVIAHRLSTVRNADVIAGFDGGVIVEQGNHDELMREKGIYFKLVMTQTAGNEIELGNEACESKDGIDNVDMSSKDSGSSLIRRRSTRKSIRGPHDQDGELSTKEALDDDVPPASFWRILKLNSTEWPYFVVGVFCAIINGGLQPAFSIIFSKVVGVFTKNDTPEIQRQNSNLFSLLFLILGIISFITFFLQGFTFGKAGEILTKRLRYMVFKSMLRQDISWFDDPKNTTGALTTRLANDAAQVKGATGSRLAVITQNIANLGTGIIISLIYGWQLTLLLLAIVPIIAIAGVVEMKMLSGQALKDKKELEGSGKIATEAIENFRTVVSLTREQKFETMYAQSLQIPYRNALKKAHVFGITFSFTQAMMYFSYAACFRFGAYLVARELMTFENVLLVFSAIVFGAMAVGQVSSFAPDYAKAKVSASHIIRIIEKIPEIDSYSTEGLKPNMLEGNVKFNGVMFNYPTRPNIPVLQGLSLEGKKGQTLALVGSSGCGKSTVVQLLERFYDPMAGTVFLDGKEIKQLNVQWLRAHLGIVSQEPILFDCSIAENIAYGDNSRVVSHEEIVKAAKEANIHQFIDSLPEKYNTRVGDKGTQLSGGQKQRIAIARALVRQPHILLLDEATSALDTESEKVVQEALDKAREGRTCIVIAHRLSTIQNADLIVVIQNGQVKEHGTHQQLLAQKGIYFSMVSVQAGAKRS

Structure (SMILES)	Activity [1]	Activity [2]	Activity [3]
CC(C)C[C@H]1C(=O)N2CCC[C@H]2[C@]2(O)O[C@](NC(=O)[C@@H]3C=C4c5cccc6[nH]c(Br)c(c56)C[C@H]4N(C)C3)(C(C)C)C(=O)N12	inducer [+]	inducer [+]	
CCCN1CCC[C@@H]2Cc3n[nH]cc3C[C@H]21 [QUINPIROLE]			inducer [+]
CCCN1CCc2cccc3c2[C@H]1Cc1ccc(O)c(O)c1-3.Cl			inducer [+]
